# Measurements as given in patent US20060281700A1, “SYNERGISTIC MODULATION OF FLT3 KINASE USING AMINOPYRIMIDINES KINASE MODULATORS” (priority 2005, published 2006).
# Tests used:
# MV4-11 tumor xenografts = assay: MV4-11 human tumor xenograft regression model in nude mice; format: in vivo
# Method: Female athymic nude mice (CD-1, nu/nu, 9-10 weeks old) were obtained from Charles River Laboratories (Wilmington, Mass.) and were maintained according to NIH standards. All mice were group housed (5 mice/cage) under clean-room conditions in sterile micro-isolator cages on a 12-hour light/dark cycle in a room maintained at 21-22° C. and 40-50% humidity. Mice were fed irradiated standard rodent diet and water ad libitum. All animals were housed in a Laboratory Animal Medicine facility that is fully accredited by the American Association for Assessment and Accreditation of Laboratory Animal Care (AAALAC). […]
# The time course of the inhibitory effects of FLT3 inhibitor compounds on the growth of MV4-11 tumors is illustrated in FIG. 1. […] Percent inhibition (% I) of tumor growth was calculated versus tumor growth in the vehicle-treated Control group on the last study day. Statistical significance versus Control was determined by Analysis of Variance (ANOVA) followed by Dunnett's t-test: *p<0.05; **p<0.01.
# (See FIG. 2). […] Percent Inhibition was calculated versus the mean tumor weight in the vehicle-treated control group. Statistical significance versus Control was determined by ANOVA followed by Dunnett's t-test: **p<0.01. […]
# [1] = system: cells that depend on FLT3 for growth; assay: Standard 72-hour cell proliferation assay, FLT3 dependent cell lines taken together; format: cell-based; details: 72-hour proliferation; depending on the cell type
# Method: The cell lines that were tested included those that are dependent on FLT3ITD mutant activity for growth (MV4-11 and Baf3-FLT3ITD), FLT3 wt activity for growth (Baf3FLT3) and those that grow independent of FLT3 activity (THP-1). […] Baf3-FLT3 and Baf3-FLT3ITD cell lines were obtained from Dr. Michael Henrich and the Oregon Health Sciences University. The Baf3 FLT3 cell lines were created by stable transfection of parental Baf3 cells (a murine B cell lymphoma line dependent on the cytokine IL-3 for growth) with either wild-type FLT3 or FLT3 containing the ITD insertion in the juxatamembrane domain of the receptor resulting in its constitutive activation. Cells were selected for their ability to grow in the absence of IL-3 and in either the presence of FLT3 ligand (Baf3-FLT3) or independent of any growth factor (Baf3-ITD). […]
# Dose responses for the individual compounds alone were determined for each cell line using a standard 72-hour cell proliferation assay (see FIGS. 6.1-6.8). […]
# Cell proliferation assay for MV4-11, Baf3-ITD, Baf3-FLT3 and THP-1 cells. […] Total cell growth is quantified as the difference in luminescent counts (relative light units, RLU) of cell number at Day 0 compared to total cell number at Day 3 (72 hours of growth and/or compound treatment). One hundred percent inhibition of growth is defined as an RLU equivalent to the Day 0 reading. […]
smiles,measurement,setting,value
"Cn1cncc1C(N)(c1ccc(Cl)cc1)c1ccc2c(c1)c(-c1cccc(Cl)c1)cc(=O)n2C (single isomer, unassigned; (+)) [Tipifarnib, (+)-6-[amino(4-chlorophenyl)(1-methyl-1H-imidazol-5-yl)methyl]-4-(3-chlorophenyl)-1-methyl-2(1H)-quinolinone]",inhibition of tumor volume vs vehicle-treated control group,"MV4-11 tumor xenografts; Day 16, Compound D 25 mg/kg bid, Tipifarnib 50 mg/kg, alone or in combination",ineffective
same,tumor growth vs Vehicle-treated group,"MV4-11 tumor xenografts; Tipifarnib 50 mg/kg single agent, nine days",ineffective
same,single agent potency for inhibition of proliferation,[1],high nanomolar to high picomolar range
